Measured values published in patent publication US20240165244A1 (Prelude Therapeutics Incorporated, priority 2022, published 2024).

Tests used:
SMARCA2 = molecular target: T1, SMARCA2 (Homo sapiens, UniProt P51531); test: SMARCA2 HiBiT degradation assay in HeLa cells; assay type: cell-based; settings: 18 hours, highest concentration 10 μM
T1 construct: SMARCA2-HiBiT knock-in Hela monoclonal cell (CS302366); host or cells: HeLa monoclonal cells with heterozygous HiBiT knock-in at the endogenous SMARCA2 locus
T1 sequence (P51531 whole entry): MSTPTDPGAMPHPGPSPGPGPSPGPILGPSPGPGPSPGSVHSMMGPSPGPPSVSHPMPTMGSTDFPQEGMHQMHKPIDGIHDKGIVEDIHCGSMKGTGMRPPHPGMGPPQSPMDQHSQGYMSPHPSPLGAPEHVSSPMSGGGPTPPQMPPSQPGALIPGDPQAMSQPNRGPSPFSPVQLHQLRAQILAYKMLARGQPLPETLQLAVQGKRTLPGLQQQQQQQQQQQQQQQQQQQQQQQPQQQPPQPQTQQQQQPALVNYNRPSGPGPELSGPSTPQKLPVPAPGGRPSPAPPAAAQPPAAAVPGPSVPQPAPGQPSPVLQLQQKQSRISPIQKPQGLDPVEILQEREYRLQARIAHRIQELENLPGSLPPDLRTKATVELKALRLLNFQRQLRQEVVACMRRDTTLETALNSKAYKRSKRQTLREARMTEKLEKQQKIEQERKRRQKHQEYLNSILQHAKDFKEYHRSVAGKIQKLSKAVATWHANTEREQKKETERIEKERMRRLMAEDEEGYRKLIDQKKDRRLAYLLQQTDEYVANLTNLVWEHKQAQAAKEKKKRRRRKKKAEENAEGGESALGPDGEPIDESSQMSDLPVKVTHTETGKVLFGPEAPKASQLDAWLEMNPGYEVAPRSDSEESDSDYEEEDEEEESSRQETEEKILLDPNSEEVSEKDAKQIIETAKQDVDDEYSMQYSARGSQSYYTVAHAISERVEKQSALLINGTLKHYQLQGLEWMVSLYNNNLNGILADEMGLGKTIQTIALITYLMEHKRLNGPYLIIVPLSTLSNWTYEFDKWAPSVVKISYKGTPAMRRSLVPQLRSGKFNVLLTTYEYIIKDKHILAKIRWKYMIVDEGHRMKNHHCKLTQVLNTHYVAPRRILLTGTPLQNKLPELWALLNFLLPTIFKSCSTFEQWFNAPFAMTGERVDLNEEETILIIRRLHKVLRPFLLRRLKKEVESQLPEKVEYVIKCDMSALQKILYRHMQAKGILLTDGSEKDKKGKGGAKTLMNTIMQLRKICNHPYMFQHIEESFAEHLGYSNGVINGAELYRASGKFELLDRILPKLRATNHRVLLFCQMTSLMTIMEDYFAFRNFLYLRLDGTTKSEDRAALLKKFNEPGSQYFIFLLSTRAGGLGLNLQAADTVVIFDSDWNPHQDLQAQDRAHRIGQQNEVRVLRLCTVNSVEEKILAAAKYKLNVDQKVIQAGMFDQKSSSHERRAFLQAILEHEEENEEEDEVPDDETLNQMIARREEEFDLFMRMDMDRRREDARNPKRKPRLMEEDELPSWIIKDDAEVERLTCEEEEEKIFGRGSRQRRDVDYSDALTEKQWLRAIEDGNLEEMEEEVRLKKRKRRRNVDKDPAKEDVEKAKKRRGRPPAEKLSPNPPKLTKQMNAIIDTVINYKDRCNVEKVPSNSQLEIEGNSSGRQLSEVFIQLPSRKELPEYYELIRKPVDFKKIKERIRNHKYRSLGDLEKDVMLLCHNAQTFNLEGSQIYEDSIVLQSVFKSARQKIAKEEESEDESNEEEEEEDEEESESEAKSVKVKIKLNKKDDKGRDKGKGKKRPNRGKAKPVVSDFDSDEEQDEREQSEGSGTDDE
Procedure: (§1) SMARCA2 HiBiT and SMARCA4 HiBiT Degradation Assay
HiBiT peptide knock-in of SMARCA2 in LgBiT expressing HEK293T cells was performed by CRISPR-mediated tagging system as described Promega. The homozygous HiBiT knock-in on c-terminus SMARCA2 was confirmed by sanger sequence. SMARCA2-HiBiT knock-in Hela monoclonal cell (CS302366) and SMARCA4-HiBiT knock-in Hela monoclonal cell (CS3023226) were purchased from Promega. The heterozygous HiBiT-knock-in was confirmed by sanger sequence in both SMARCA2-HiBiT and SMARCA4-HiBiT monoclonal cells.
(§2) SMARCA2 HiBiT and SMARCA4 HiBiT Degradation Assay in HeLa Cells
Dispense 10 ul aliquot of prepared Hela-SMARCA2-HiBiT or Hela-SMARCA4-HiBiT cells (1:1 ratio of cells:Trypan Blue (#1450013, Bio-Rad)) onto cell counting slide (#145-0011, Bio-Rad) and obtain cell density and cell viability using cell counter (TC20, Bio-Rad). Remove appropriate volume of resuspended cells from culture flask to accommodate 2500 cells/well @ 20 μL/well. Transfer Hela-HiBiT cells to 50 mL conical (#430290, Corning). Spin down at 1000 rpm for 5 min using tabletop centrifuge (SPINCHRON 15, Beckman). Discard supernatant and resuspend cell pellet in modified EMEM (#30-2003, ATCC) cell culture media containing 10% FBS (F2422-500ML, Sigma), and 1× Penicillin/Streptomycin ([…]) (30-002-CI, Corning) to a cell density of 125,000 cells/mL. Dispense 20 μLof resuspended Hela-HiBit cells per well in 384-well TC treated plate (#12-565-343, Thermo Scientific) using standard cassette (#50950372, Thermo Scientific) on Multidrop Combi (#5840310, Thermo Scientific) inside laminar flow cabinet.
Compounds were dissolved in DMSO to make 10 mM stock and 3-fold series dilutions were further conducted keeping the highest concentration 10 μM. Dispense test compounds onto plates using digital liquid dispenser (D300E, Tecan). Incubate plates in humidified tissue culture incubator @37° C. for 18 hours. Add 20 μL of prepared Nano-Glo® HiBiT Lytic detection buffer (N3050, Promega) to each well of 384-well plate using small tube cassette (#24073295, Thermo Scientific) on Multidrop Combi, incubate @ RT for 30-60 min. Read plates on microplate reader (Envision 2105, PerkinElmer) using 384 well Ultra-Sensitive luminescence mode. Raw data files and compound information reports are swept into centralized data lake and deconvoluted using automated scripts designed by TetraScience, Inc. Data analysis, curve-fitting and reporting done in Dotmatics Informatics Suite using Screening Ultra module.

SMARCA4 = molecular target: T2, SMARCA4 (Homo sapiens, UniProt P51532); test: SMARCA4 HiBiT degradation assay in HeLa cells; assay type: cell-based; settings: 18 hours, highest concentration 10 μM
T2 construct: SMARCA4-HiBiT knock-in Hela monoclonal cell (CS3023226); host or cells: HeLa monoclonal cells with heterozygous HiBiT knock-in at the endogenous SMARCA4 locus
T2 sequence (P51532 whole entry): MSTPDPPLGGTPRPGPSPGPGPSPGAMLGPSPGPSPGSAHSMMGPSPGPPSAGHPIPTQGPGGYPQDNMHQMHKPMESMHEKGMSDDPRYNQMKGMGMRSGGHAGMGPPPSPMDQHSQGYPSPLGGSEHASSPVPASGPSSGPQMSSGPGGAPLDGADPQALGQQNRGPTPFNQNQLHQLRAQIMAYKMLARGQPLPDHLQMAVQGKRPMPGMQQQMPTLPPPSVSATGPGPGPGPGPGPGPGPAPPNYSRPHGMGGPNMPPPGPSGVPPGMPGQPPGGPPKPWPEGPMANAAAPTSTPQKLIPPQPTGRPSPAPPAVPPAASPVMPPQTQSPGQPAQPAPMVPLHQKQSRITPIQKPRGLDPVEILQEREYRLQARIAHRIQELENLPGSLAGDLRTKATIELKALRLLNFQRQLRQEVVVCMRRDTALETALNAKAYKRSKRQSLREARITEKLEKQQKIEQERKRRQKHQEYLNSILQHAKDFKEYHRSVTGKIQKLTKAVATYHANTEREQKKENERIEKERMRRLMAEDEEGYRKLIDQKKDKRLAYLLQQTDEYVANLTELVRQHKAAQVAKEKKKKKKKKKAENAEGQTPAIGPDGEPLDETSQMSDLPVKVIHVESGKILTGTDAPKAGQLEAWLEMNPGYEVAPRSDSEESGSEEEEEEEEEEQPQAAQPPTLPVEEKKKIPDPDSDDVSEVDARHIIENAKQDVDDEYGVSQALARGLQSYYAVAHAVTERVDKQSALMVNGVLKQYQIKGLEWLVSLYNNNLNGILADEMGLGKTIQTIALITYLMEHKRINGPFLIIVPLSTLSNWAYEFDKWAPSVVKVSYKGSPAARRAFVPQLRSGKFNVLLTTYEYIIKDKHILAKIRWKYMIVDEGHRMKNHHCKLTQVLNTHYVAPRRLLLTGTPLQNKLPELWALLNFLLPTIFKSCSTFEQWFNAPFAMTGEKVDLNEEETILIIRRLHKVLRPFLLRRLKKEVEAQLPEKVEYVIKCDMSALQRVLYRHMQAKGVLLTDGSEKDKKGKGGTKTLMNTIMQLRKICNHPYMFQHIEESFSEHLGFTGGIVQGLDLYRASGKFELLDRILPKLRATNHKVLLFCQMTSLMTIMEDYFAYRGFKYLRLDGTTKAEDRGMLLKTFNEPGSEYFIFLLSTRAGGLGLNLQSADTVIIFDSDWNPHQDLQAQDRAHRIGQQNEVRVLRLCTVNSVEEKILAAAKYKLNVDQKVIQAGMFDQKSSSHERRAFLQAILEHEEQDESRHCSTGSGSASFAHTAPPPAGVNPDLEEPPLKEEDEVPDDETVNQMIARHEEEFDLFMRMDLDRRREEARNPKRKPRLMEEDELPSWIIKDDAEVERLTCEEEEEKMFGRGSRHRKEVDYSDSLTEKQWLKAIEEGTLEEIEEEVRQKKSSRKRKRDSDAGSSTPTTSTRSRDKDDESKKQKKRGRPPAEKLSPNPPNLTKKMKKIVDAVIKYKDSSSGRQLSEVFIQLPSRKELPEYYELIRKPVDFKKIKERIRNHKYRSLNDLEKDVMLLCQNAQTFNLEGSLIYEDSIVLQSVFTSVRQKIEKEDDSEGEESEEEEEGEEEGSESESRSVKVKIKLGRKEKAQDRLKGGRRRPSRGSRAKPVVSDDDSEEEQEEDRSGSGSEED
Procedure: as §1
HiBiT peptide knock-in of SMARCA2 in LgBiT expressing HEK293T cells was performed by CRISPR-mediated tagging system as described Promega. […] SMARCA2-HiBiT knock-in Hela monoclonal cell (CS302366) and SMARCA4-HiBiT knock-in Hela monoclonal cell (CS3023226) were purchased from Promega.
as §2
Remove appropriate volume of resuspended cells from culture flask to accommodate 2500 cells/well @ 20 μL/well. […] Spin down at 1000 rpm for 5 min using tabletop centrifuge (SPINCHRON 15, Beckman).
Dispense test compounds onto plates using digital liquid dispenser (D300E, Tecan). Incubate plates in humidified tissue culture incubator @37° C. for 18 hours. […] Raw data files and compound information reports are swept into centralized data lake and deconvoluted using automated scripts designed by TetraScience, Inc. Data analysis, curve-fitting and reporting done in Dotmatics Informatics Suite using Screening Ultra module.

DC50 (SMARCA2) [nM] | Dmax (SMARCA2) [%] | DC50 (SMARCA4) [nM] | Dmax (SMARCA4) [%] | SMILES
< 100 | > 75 | < 100 | 50 to 75 | Cc1cc(O[C@H]2CN3c4cc(-c5cccc(F)c5O)nnc4NC[C@@]3(C)C2)ncc1CN1CCN(c2ccc3c(c2)C(=O)N(C2CCC(=O)NC2=O)C3)CC1 (stereo partly drawn) [Example 55, 3-(6-(4-((6-(((6aR,8R)-2-(3-fluoro-2-hydroxyphenyl)-6a-methyl-5,6,6a,7,8,9-hexahydropyrrolo[1′,2′:4,5]pyrazino[2,3-c]pyridazin-8-yl)oxy)-4-methylpyridin-3-yl)methyl)piperazin-1-yl)-1-oxoisoindolin-2-yl)piperidine-2,6-dione]
< 100 | > 75 | < 100 | 50 to 75 | CC[C@]12CNc3nnc(-c4cccc(Cl)c4O)cc3N1C[C@H](Oc1cnc(CN3CCC(c4ccc5c(c4)C(=O)N([C@H]4CCC(=O)NC4=O)C5)CC3)c(Cl)c1)C2 [Example 99, (S)-3-(6-(1-((3-chloro-5-(((6aS,8R)-2-(3-chloro-2-hydroxyphenyl)-6a-ethyl-5,6,6a,7,8,9-hexahydropyrrolo[1′,2′:4,5]pyrazino[2,3-c]pyridazin-8-yl)oxy)pyridin-2-yl)methyl)piperidin-4-yl)-1-oxoisoindolin-2-yl)piperidine-2,6-dione]
< 100 | > 75 | > 1000 | < 50 | Cc1c(CN2CCN(c3ccc4c(c3)C(=O)N([C@H]3CCC(=O)NC3=O)C4)CC2)cnc(O[C@H]2CN3c4cc(-c5cccc(F)c5O)nnc4NC[C@@]3(CF)C2)c1F [Example 71, (S)-3-(6-(4-((5-fluoro-6-(((6aR,8R)-2-(3-fluoro-2-hydroxyphenyl)-6a-(fluoromethyl)-5,6,6a,7,8,9-hexahydropyrrolo[1′,2′:4,5]pyrazino[2,3-c]pyridazin-8-yl)oxy)-4-methylpyridin-3-yl)methyl)piperazin-1-yl)-1-oxoisoindolin-2-yl)piperidine-2,6-dione]
< 100 | > 75 | > 1000 | < 50 | Cc1cc(O[C@H]2CN3c4cc(-c5cccc(F)c5O)nnc4NC[C@@]3(CF)C2)ncc1CN1CCC(c2ccc3c(c2)C(=O)N([C@H]2CCC(=O)NC2=O)C3)CC1 [Example 93, (S)-3-(6-(1-((6-(((6aR,8R)-2-(3-fluoro-2-hydroxyphenyl)-6a-(fluoromethyl)-5,6,6a,7,8,9-hexahydropyrrolo [1′,2′:4,5]pyrazino[2,3-c]pyridazin-8-yl)oxy)-4-methylpyridin-3-yl)methyl)piperidin-4-yl)-1-oxoisoindolin-2-yl)piperidine-2,6-dione]
< 100 | 50 to 75 | 100 to 1000 | < 50 | Cc1nc(O[C@H]2CN3c4cc(-c5cccc(F)c5O)nnc4NC[C@]3(C(F)F)C2)c(C)nc1CN1CCN(c2ccc3c(c2)C(=O)N([C@H]2CCC(=O)NC2=O)C3)CC1 [Example 48, (S)-3-(6-(4-((5-(((6aS,8R)-6a-(difluoromethyl)-2-(3-fluoro-2-hydroxyphenyl)-5,6,6a,7,8,9-hexahydropyrrolo[1′,2′:4,5]pyrazino[2,3-c]pyridazin-8-yl)oxy)-3,6-dimethylpyrazin-2-yl)methyl)piperazin-1-yl)-1-oxoisoindolin-2-yl)piperidine-2,6-dione]
< 100 | > 75 | < 100 | 50 to 75 | O=C1CCC(N2Cc3ccc(N4CCN(Cc5cnc(O[C@H]6CN7c8cc(-c9cccc(F)c9O)nnc8NC[C@]7(C(F)F)C6)c(F)c5)CC4)cc3C2=O)C(=O)N1 (stereo partly drawn) [Example 54, 3-(6-(4-((6-(((6aS,8R)-6a-(difluoromethyl)-2-(3-fluoro-2-hydroxyphenyl)-5,6,6a,7,8,9-hexahydropyrrolo[1′,2′:4,5]pyrazino[2,3-c]pyridazin-8-yl)oxy)-5-fluoropyridin-3-yl)methyl)piperazin-1-yl)-1-oxoisoindolin-2-yl)piperidine-2,6-dione]
< 100 | > 75 | > 1000 | < 50 | Cc1cc(S[C@@H]2C[C@@H]3CNc4nnc(-c5cc(F)cc(F)c5O)cc4N3C2)ncc1CN1CCN(c2ccc3c(c2)C(=O)N([C@H]2CCC(=O)NC2=O)C3)CC1 [Example 38, (S)-3-(6-(4-((6-(((6aR,8R)-2-(3,5-difluoro-2-hydroxyphenyl)-5,6,6a,7,8,9-hexahydropyrrolo[1′,2′:4,5]pyrazino[2,3-c]pyridazin-8-yl)thio)-4-methylpyridin-3-yl)methyl)piperazin-1-yl)-1-oxoisoindolin-2-yl)piperidine-2,6-dione]

More lines, now with the values behind:

SMILES | DC50 (SMARCA2) [nM] | Dmax (SMARCA2) [%] | DC50 (SMARCA4) [nM] | Dmax (SMARCA4) [%]
Cc1cc(O[C@@H]2C[C@@H]3CNc4nnc(-c5cccc(C)c5O)cc4N3C2)ccc1CN1CCN(c2ccc3c(c2)C(=O)N(C2CCC(=O)NC2=O)C3)CC1 (stereo partly drawn) [Example 20, 3-(6-(4-(4-(((6aR,8R)-2-(2-hydroxy-3-methylphenyl)-5,6,6a,7,8,9-hexahydropyrrolo[1′,2′:4,5]pyrazino[2,3-c]pyridazin-8-yl)oxy)-2-methylbenzyl)piperazin-1-yl)-1-oxoisoindolin-2-yl)piperidine-2,6-dione] | < 100 | > 75 | > 1000 | < 50
C[C@@H]1CN(CC2CCN(c3ccc4c(c3)C(=O)N(C3CCC(=O)NC3=O)C4)CC2)C[C@H](C)N1C(=O)[C@@H]1C[C@@H]2CNc3nnc(-c4cccc(F)c4O)cc3N2C1 (stereo partly drawn) [Example 34, 3-(6-(4-(((3R,5S)-4-((6aR,8R)-2-(3-fluoro-2-hydroxyphenyl)-5,6,6a,7,8,9-hexahydropyrrolo[1′,2′:4,5]pyrazino[2,3-c]pyridazine-8-carbonyl)-3,5-dimethylpiperazin-1-yl)methyl)piperidin-1-yl)-1-oxoisoindolin-2-yl)piperidine-2,6-dione] | < 100 | 50 to 75 | > 1000 | < 50
Cc1nc(O[C@@H]2C[C@@H]3CNc4nnc(-c5cc(F)cc(F)c5O)cc4N3C2)ccc1CN1CCN(c2ccc3c(c2)C(=O)N([C@H]2CCC(=O)NC2=O)C3)CC1 [Example 30, (S)-3-(6-(4-((6-(((6aR,8R)-2-(3,5-difluoro-2-hydroxyphenyl)-5,6,6a,7,8,9-hexahydropyrrolo[1′,2′:4,5]pyrazino[2,3-c]pyridazin-8-yl)oxy)-2-methylpyridin-3-yl)methyl)piperazin-1-yl)-1-oxoisoindolin-2-yl)piperidine-2,6-dione] | < 100 | > 75 | < 100 | > 75
CC(C)c1cc(O[C@@H]2C[C@@H]3CNc4nnc(-c5cc(F)cc(F)c5O)cc4N3C2)ccc1CN1CCN(c2ccc3c(c2)C(=O)N(C2CCC(=O)NC2=O)C3)CC1 (stereo partly drawn) [Example 16, 3-(6-(4-(4-(((6aR,8R)-2-(3,5-difluoro-2-hydroxyphenyl)-5,6,6a,7,8,9-hexahydropyrrolo[1′,2′:4,5]pyrazino[2,3-c]pyridazin-8-yl)oxy)-2-isopropylbenzyl)piperazin-1-yl)-1-oxoisoindolin-2-yl)piperidine-2,6-dione] | < 100 | 50 to 75 | < 100 | 50 to 75
O=C1CCC(N2Cc3ccc(N4CCN(Cc5ccc(O[C@@H]6C[C@@H]7CNc8nnc(-c9cc(F)cc(F)c9O)cc8N7C6)cc5OC(F)(F)F)CC4)cc3C2=O)C(=O)N1 (stereo partly drawn) [Example 24, 3-(6-(4-(4-(((6aR,8R)-2-(3,5-difluoro-2-hydroxyphenyl)-5,6,6a,7,8,9-hexahydropyrrolo[1′,2′:4,5]pyrazino[2,3-c]pyridazin-8-yl)oxy)-2-(trifluoromethoxy)benzyl)piperazin-1-yl)-1-oxoisoindolin-2-yl)piperidine-2,6-dione] | < 100 | 50 to 75 | > 1000 | < 50
